Read-outs that look alike come from different tables or passages of the source. Where a SMILES comes first, the peptide text is derived from it. Bridges are numbered along the chain shown (N, C = ends).
How the values were obtained:
K-Kv1.2 channel = experiment: Whole-cell patch-clamp of Neuro2a cells transfected with K-Kv1.2; assay type: cell-based, human; details: for block of current through K-Kv1.2: 10 nM peptide, whole-cell, representative traces (Figure 8d-g)
Description: The patch-clamp method (whole-cell configuration) was used to measure membrane ion currents as described earlier. All the measurements were carried out at room temperature in a buffer containing (mM) 140 NaCl, 2.8 KCl, 2 MgCl2, 2 CaCl2, 10 HEPES, and 10 glucose (pH 7.4). Resistance of the micropipette tip was 6–8 MΩ. The pipette solution contained (mM) 140 KCl, 6 CaCl2, 2 MgCl2, 2 MgATP, 0.4 NaGTP, 10 HEPES, and 20 BAPTA/KOH (pH 7.3). The holding potential was −40 mV. The membrane potential increased from −70 to +70 mV with the 20 mV step each 20 s and returned to −40 mV. The duration of voltage pulses was 200 ms.
Measurements were carried out in 24–48 h after transfection of cells. HgTx1 (2 nM), HgTx-G (7.5 nM), Ce1 (10 nM), and Ce4 (10 nM) were dissolved in the extracellular buffer.

Kv1.1 channel (K-Kv1.1) [1] = experiment: Competitive displacement of A-HgTx from complexes with K-Kv1.1 on Neuro2a cells; assay type: binding; details: for Kd: displacement of A-HgTx (2 nM) from K-Kv1.1, Neuro2a cells (Figure S7), read-out: Kap, Kv1.1
Text: Content of secondary structures in the studied peptides
Table S1. Content of secondary structures in the studied peptides (%) according to the CD analysis.
Peptide α-helix β-sheet Turns Random coil
Studies of affinity of Ce1 and Ce4 peptides to Kv1.1 and Kv1.3 channels Affinity of MgTx to Kv1.3 channel and peptides Ce1 and Ce4 to Kv1.1 and Kv1.3 channels was studied using previously developed analytical systems based on fluorescent ligand A-HgTx and Kv1.1 (Kv1.3) channels expressed in the membrane of Neuro2a cells in the form of the conjugates with mKate2 fluorescent protein (K-Kv1.1 and K-Kv1.3). The approach based on the competitive displacement of A-HgTx (2 nM) from the complex with the channel by the increasing concentration of the studied peptide (Figure S6) and the previously approved formalism (described in the Materials and Methods section) were used to evaluate Kap values for MgTx, Ce1 and Ce4 peptides. For the complexes of MgTx, Ce1 and Ce4 with Kv1.3 channel the Kap values are 1.4±0.7, 13±8 and 30±10 nM, respectively. For the complex of Ce1 with Kv1.1 channel, Kap is equal to 11±5 nM. Since Ce4 […]
(Figure S6b), Kap of the complex between Ce4 and Kv1.1 is estimated to be higher than 300 nM.
Figure S7. Competitive displacement of A-HgTx (2 nM) from the complexes with K-Kv1.1 (a, b) and K-Kv1.3 (c) by Ce1, Ce4 and MgTx peptides. (a,c) The dependences of the Rav/Rav0 parameter (see the Materials and Methods section) on the concentration C of the added competitor are shown. Data are averaged over three independent experiments and presented as mean±SEM. (b) Histogram showing the effect of 1 µM Ce4 on the binding of A-HgTx (2 nM) to K-Kv1.1.
Molecular modeling of Kv1.2 channel and its complexes with peptide blockers
(1 picture or pasted object on this page, not shown here)

Kv1.1 channel (K-Kv1.1) [2] = details: similar analytical system, read-out: Kap, Kv1.1; cited from earlier work
Text: Table 2 Sequences of Ce1, Ce4, HgTx1, and MgTx peptides and dissociation constants (Kap, nM) of their complexes with Kv1.2, Kv1.1, and Kv1.3 channels. | column: Kap, nM

Kv1.2 channels = details: mammalian cells with depolarized membranes; read-out: 50% inhibition of the Rb+ flux through Kv1.2; cited from earlier work
Text: Kap of MgTx in our experiments is consistent with the last value.

Row | Compound | block of current through K-Kv1.2 (K-Kv1.2 channel) | Kd (Kv1.1 channel (K-Kv1.1) [1]) | block of K-Kv1.2 channel currents (K-Kv1.2 channel; 2 nM HgTx1, whole-cell, room temperature, n = 10) | Kd (Kv1.1 channel (K-Kv1.1) [2]) | IC50 (Kv1.2 channels) | displacement of A-HgTx (2 nM) from the complex with Kv1.1 channel (Kv1.1 channel (K-Kv1.1) [1]; till the 1 µM concentration of peptide)
1 | CC[C@H](C)[C@H](NC(=O)[C@@H](NC(=O)[C@@H](N)[C@@H](C)O)C(C)C)C(=O)N[C@@H](CC(N)=O)C(=O)N[C@H](C(=O)N[C@@H](CCCCN)C(=O)N[C@H]1CSSC[C@@H]2NC(=O)[C@H](CCCCN)NC(=O)[C@H](C)NC(=O)CNC(=O)[C@H](C)NC(=O)[C@H](Cc3c[nH]cn3)NC(=O)[C@@H]3CCCN3C(=O)CNC(=O)[C@H](Cc3ccc(O)cc3)NC(=O)[C@H](CC(C)C)NC(=O)[C@H](CC(=O)O)NC(=O)[C@H](CCCCN)NC(=O)[C@@H]3CSSC[C@@H](C(=O)N[C@@H](Cc4ccc(O)cc4)C(=O)N[C@@H](CC(N)=O)C(=O)N[C@@H](CC(N)=O)C(=O)O)NC(=O)[C@H](CCCCN)NC(=O)[C@H](CSSC[C@H](NC(=O)[C@H](CCC(N)=O)NC(=O)[C@H](CCCCN)NC(=O)[C@@H]4CCCN4C(=O)[C@H](CO)NC(=O)[C@H]([C@@H](C)O)NC1=O)C(=O)N[C@@H](CC(C)C)C(=O)N[C@@H](CCCCN)C(=O)N1CCC[C@H]1C(=O)N3)NC(=O)[C@H](CCCCN)NC(=O)CNC(=O)[C@H](CC(N)=O)NC(=O)[C@H](CCSC)NC2=O)C(C)C [Ce1] (H-TVINVKCTSPKQCLKPCKDLYGPHAGAKCMNGKCKCYNN-OH; disulfide 7-29, 13-34, 17-36 (inferred); N-terminus and C-terminus assumed) | block current through the channel | 11 ± 5 nM |  |  |  | 
2 | CC[C@H](C)[C@@H]1NC(=O)CNC(=O)[C@H](Cc2ccccc2)NC(=O)[C@H](CCC(N)=O)NC(=O)[C@H](C)NC(=O)[C@H](CCCCN)NC(=O)[C@@H]2CSSC[C@@H](C(=O)N[C@@H](Cc3ccc(O)cc3)C(=O)N3CCC[C@H]3C(=O)N[C@@H](Cc3c[nH]cn3)C(=O)O)NC(=O)[C@H](CCCCN)NC(=O)[C@@H]3CSSC[C@H](NC(=O)[C@H](CCC(N)=O)NC(=O)[C@H](CCCCN)NC(=O)[C@@H]4CCCN4C(=O)[C@H](CO)NC(=O)[C@H]([C@@H](C)O)NC(=O)[C@@H](NC(=O)[C@H](CCCCN)NC(=O)[C@@H](NC(=O)[C@H](CC(=O)O)NC(=O)[C@@H](NC(=O)[C@@H](NC(=O)[C@@H](N)[C@@H](C)O)C(C)C)[C@@H](C)CC)C(C)C)CSSC[C@H](NC(=O)[C@H](CCCCN)NC(=O)[C@H](C)NC(=O)CNC(=O)[C@H](C)NC(=O)[C@H](CCCNC(=N)N)NC1=O)C(=O)N[C@@H](CCSC)C(=O)N[C@@H](CC(N)=O)C(=O)NCC(=O)N[C@@H](CCCCN)C(=O)N3)C(=O)N[C@@H](CC(C)C)C(=O)N1CCC[C@H]1C(=O)N1CCC[C@H]1C(=O)N2 [HgTx1, hongotoxin 1] (H-TVIDVKCTSPKQCLPPCKAQFGIRAGAKCMNGKCKCYPH-OH; disulfide 7-29, 13-34, 17-36 (inferred); N-terminus and C-terminus assumed) |  |  | 84 ± 2% | 0.03 ± 0.02 nM | 0.14 nM | 
3 | CC[C@H](C)[C@H](NC(=O)[C@H](CCCCN)NC(=O)[C@H](Cc1ccc(O)cc1)NC(=O)[C@@H]1CSSC[C@@H]2NC(=O)[C@@H]3CCCN3C(=O)[C@H](CC(C)C)NC(=O)[C@H](CC(C)C)NC(=O)[C@@H]3CSSC[C@H](NC(=O)[C@H](CCCCN)NC(=O)CNC(=O)[C@H](CC(N)=O)NC(=O)[C@H](CCSC)NC(=O)[C@H](CSSC[C@H](NC(=O)[C@H](CCCCN)NC(=O)[C@@H](NC(=O)[C@H](CC(N)=O)NC(=O)[C@@H](NC(=O)[C@@H](NC(=O)[C@@H](N)[C@@H](C)O)[C@@H](C)CC)[C@@H](C)CC)C(C)C)C(=O)N[C@@H]([C@@H](C)O)C(=O)N[C@@H](CO)C(=O)N4CCC[C@H]4C(=O)N[C@@H](CCCCN)C(=O)N[C@@H](CCC(N)=O)C(=O)N3)NC(=O)[C@H](CCCCN)NC(=O)[C@H](C)NC(=O)CNC(=O)[C@H](C)NC(=O)[C@H](Cc3c[nH]cn3)NC(=O)[C@H]([C@@H](C)CC)NC(=O)CNC(=O)[C@H](Cc3ccc(O)cc3)NC(=O)[C@H]([C@@H](C)CC)NC(=O)[C@H](CCC(=O)O)NC(=O)[C@H](CCCCN)NC2=O)C(=O)N[C@@H](CCCCN)C(=O)N1)C(=O)O [Ce4] (H-TIINVKCTSPKQCLLPCKEIYGIHAGAKCMNGKCKCYKI-OH; disulfide 7-29, 13-34, 17-36 (inferred); N-terminus and C-terminus assumed) | block current through the channel | > 300 nM |  |  |  | does not displace A-HgTx

From PMC11674118, “New High-Affinity Peptide Ligands for Kv1.2 Channel: Selective Blockers and Fluorescent Probes” (Cells, 2024)
